Experimental data taken from patent publication US9763957B2, “Autotaxin inhibitors” (Novartis AG, priority 2013, dated 2017).

Target: Recombinant human ATX (Homo sapiens (Human), UniProt Q13822)
Test: ATX inhibition assay (choline release, Amplex Red fluorescence)
Assay type: biochemical
Settings: ATX 10 nM, LPC 18:1 10 μM, 37° C., 20 min pre-incubation; mean of n≧2
Outline: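 Activity was taken from the slope of resorufin fluorescence (530/590 nm, read every 2 min for 40 min at 37 °C) produced by choline liberated from 10 μM oleoyl LPC.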

## Cc1nnn(Cc2cc(Cl)ccc2/C=C/C(=O)N2CCC(CNC(=O)CCc3cc(O)no3)CC2)n1 [Example 147, (E)-N-((1-(3-(4-Chloro-2-((5-methyl-2H-tetrazol-2-yl)methyl)phenyl)acryloyl)piperidin-4-yl)methyl)-3-(3-hydroxyisoxazol-5-yl)propanamide]
  IC50: 13 nM

## Cc1nnn(Cc2cc(Cl)ccc2/C=C/C(=O)N2CCC(CCN(C)C(=O)c3c[nH]c(=O)o3)CC2)n1 [Example 148, (E)-N-(2-(1-(3-(4-Chloro-2-((5-methyl-2H-tetrazol-2-yl)methyl)phenyl)acryloyl)piperidin-4-yl)ethyl)-N-methyl-2-oxo-2,3-dihydrooxazole-5-carboxamide]
  IC50: 8.9 nM

## Cc1nnn(Cc2cc(Cl)ccc2/C=C/C(=O)N2CCN(C3CCN(C(=O)c4c[nH]nn4)CC3)CC2)n1 [Example 149, (E)-1-(4-(1-(1H-1,2,3-Triazole-4-carbonyl)piperidin-4-yl)piperazin-1-yl)-3-(4-chloro-2-((5-methyl-2H-tetrazol-2-yl)methyl)phenyl)prop-2-en-1-one]
  IC50: 4.9 nM

## CCOc1c(NCCC2CN(C(=O)/C=C/c3ccc(Cl)cc3Cn3nnc(C)n3)CCO2)c(=O)c1=O (centres unmarked) [Example 150, (E)-3-((2-(4-(3-(4-Chloro-2-((5-methyl-2H-tetrazol-2-yl)methyl)phenyl)acryloyl)morpholin-2-yl)ethyl)amino)-4-ethoxycyclobut-3-ene-1,2-dione]
  IC50: 6.9 nM

## Cc1nnn(Cc2cc(Cl)ccc2/C=C/C(=O)N2CCC(NC(=O)CCCc3c[nH]nn3)CC2)n1 [Example 151, (E)-N-(1-(3-(4-Chloro-2-((5-methyl-2H-tetrazol-2-yl)methyl)phenyl)acryloyl)piperidin-4-yl)-4-(1H-1,2,3-triazol-4-yl)butanamide]
  IC50: 3.1 nM

## Cc1nnn(Cc2cc(C(F)(F)F)ccc2/C=C/C(=O)N2CCC(NC(=O)CCCc3c[nH]nn3)CC2)n1 [Example 152, (E)-N-(1-(3-(2-((5-Methyl-2H-tetrazol-2-yl)methyl)-4-(trifluoromethyl)phenyl)acryloyl)piperidin-4-yl)-4-(1H-1,2,3-triazol-4-yl)butanamide]
  IC50: 3.9 nM

## Cc1nnn(Cc2cc(C(F)(F)F)ccc2CCC(=O)N2CCC(CCCCCc3c[nH]nn3)CC2)n1 [Example 153, 1-(4-(5-(1H-1,2,3-Triazol-4-yl)pentyl)piperidin-1-yl)-3-(2-((5-methyl-2H-tetrazol-2-yl)methyl)-4-(trifluoromethyl)phenyl)propan-1-one]
  IC50: 2 nM

## Cc1nnn(Cc2cc(C(F)(F)F)ccc2OCC(=O)N2CCC(CCCCCc3c[nH]nn3)CC2)n1 [Example 154, 1-(4-(5-(1H-1,2,3-Triazol-4-yl)pentyl)piperidin-1-yl)-2-(2-((5-methyl-2H-tetrazol-2-yl)methyl)-4-(trifluoromethyl)phenoxy)ethanone]
  IC50: 2.4 nM

## Cc1nnn(Cc2cc(C(F)(F)F)ccc2/C=C/C(=O)N2CCC(NCCCCc3c[nH]nn3)CC2)n1 [Example 155, (E)-1-(4-((4-(1H-1,2,3-Triazol-4-yl)butyl)amino)piperidin-1-yl)-3-(2-((5-methyl-2H-tetrazol-2-yl)methyl)-4-(trifluoromethyl)phenyl)prop-2-en-1-one]
  IC50: 13 nM

## Cc1nnn(Cc2cc(C(F)(F)F)ccc2/C=C/C(=O)N2CCC(NC(=O)CCCCCc3cnn[nH]3)CC2)n1 [Example 156, (E)-N-(1-(3-(2-((5-Methyl-2H-tetrazol-2-yl)methyl)-4-(trifluoromethyl)phenyl)acryloyl)piperidin-4-yl)-6-(1H-1,2,3-triazol-5-yl)hexanamide]
  IC50: 5.3 nM

## Cc1nnn(Cc2cc(C(F)(F)F)ccc2/C=C/C(=O)N2CCC(CCOCCc3cnn[nH]3)CC2)n1 [Example 157, (E)-1-(4-(2-(2-(1H-1,2,3-Triazol-5-yl)ethoxy)ethyl)piperidin-1-yl)-3-(2-((5-methyl-2H-tetrazol-2-yl)methyl)-4-(trifluoromethyl)phenyl)prop-2-en-1-one]
  IC50: 9.2 nM
